# In patent publication US5891458A, “Bioerodible device for administering active ingredients” (priority 1997, dated 1999):
# How the values were obtained:
# [1] = design: species or system Sprague-Dawley rats; details: rat, in vivo
# Method: The devices prepared in Example 2 were evaluated in ovariectomized Sprague-Dawley rats. The rats were ovariectomized 2 weeks prior to testing. On the test day the animals were anesthetized with ether and administered with either 10 ug of 17 B-estradiol in sesame oil [0.2 ml by subcutaneous (S.C.) or ingestion (I.G.) routes] or a soluble device containing an equal amount of estradiol placed buccally. Animals were kept anesthetized for approximately 10 minutes after estradiol administration. Trunk blood was collected at various times thereafter.
# [2] = tested on: diestrus rat; experiment: In-vivo delivery study of histrelin buccal device: induction of ovulation in the diestrus rat; details: for ED50 dose (inducing ovulation): buccal tablet
# Method: The study was designed to measure the ability of the histrelin delivered by the soluble buccal devices of the invention to induce ovulation in the diestrus rat. Devices were prepared by punching 7 mm tablets from the tray containing the lyophilized foam. Each tablet theoretically contained 297 ug of histrelin. Whole, halved and quartered tablets were then placed in the buccal cavity of diestrus rats anesthetized with ether. After 10 minutes the device was absorbed. The following day the rats were sacrificed and the oviducts removed and examined for the presence of ova.
# [3] = half buccal tablet, histrelin 150 ug
# [4] = quarter buccal tablet, histrelin 75 ug
# [5] = whole buccal tablet, histrelin 300 ug
Structure (SMILES),bioavailability of estradiol administered buccally [1],time after which the device was absorbed ([2]; buccal cavity of anesthetized diestrus rats) [min],ED50 dose (inducing ovulation) ([2]; per body weight) [mg/kg],ED50 dose (inducing ovulation) ([2]; per rat),inducing ovulation (result in words) ([2]; buccal tablets),"# of Rats Ovulating/Total # of Rats [2, 3]","Ova/Rat [2, 3]","# of Rats Ovulating/Total # of Rats [2, 4]","Ova/Rat [2, 4]","# of Rats Ovulating/Total # of Rats [2, 5]","Ova/Rat [2, 5]"
"C[C@]12CC[C@@H]3c4ccc(O)cc4CC[C@H]3[C@@H]1CC[C@@H]2O [Estradiol, 17 B-estradiol]",greater than oral administration but less than administered by injection,–,–,–,–,–,–,–,–,–,–
CCNC(=O)[C@@H]1CCCN1C(=O)[C@H](CCCNC(=N)N)NC(=O)[C@H](CC(C)C)NC(=O)[C@@H](Cc1cn(Cc2ccccc2)cn1)NC(=O)[C@H](Cc1ccc(O)cc1)NC(=O)[C@H](CO)NC(=O)[C@H](Cc1c[nH]c2ccccc12)NC(=O)[C@H](Cc1cnc[nH]1)NC(=O)[C@@H]1CCC(=O)N1 [Histrelin],–,10,~0.3,approximately 75 ug/rat,effective in inducing ovulation in a dose-dependent manner,4/5,8,4/6,6,6/6,13
